Assay results from patent US20250101026A1, “Functionalized Allopurinol Derivatives for Treatment of Alzheimer’s Disease” (BOARD OF REGENTS OF THE UNIVERSITY OF NEBRASKA, priority 2022, published 2025).
Entries after “also recorded” stand apart in the source; their conditions may differ.

Legend:
[1] = system: SH-SY5Y cells; assay: Cell viability of SH-SY5Y cells with compound alone; format: cell-based, human; conditions: up to 100 μM
Protocol: (§1) Cell Culture. The cell line SH-SY5Y was cultured in DMEM/F12 media supplemented with 10% fetal bovine serum, 1% penicillin-streptomycin and maintained as monolayer cultures in a humidified atmosphere containing 5% CO2 at 37° C.^42 All cell lines were authenticated via short tandem repeat analysis and tested for mycoplasma using the a commercial mycoplasma detection kit as per the manufacturer's instructions, showing no contamination. Where indicated, cells were also cultured in DMEM/low glucose media. All compounds were diluted to 20 mM solution in DMSO and were serially diluted in cell culture media for cell treatments to a final concentration range of 0.01 to 100 μM, maintaining the final DMSO concentration at less than 1%. Positive control compound HupA was serially diluted in a similar fashion as the synthesized compounds.
Cell Viability Assays. The SH-SY5Y cells were plated at a density of 50,000 cells/well in 96-well plates and allowed to adapt overnight in a humidified atmosphere containing 5% CO2 at 37° C. The cells were pretreated (24 hours) with the test compound and exchanged to a serum-free DMEM/low glucose media, prior to incubation with 25 μM of Aβ. Cell viability was measured after 48 hours using commercial MTS assay or lactate dehydrogenase (LDH) cytotoxicity assay. […]

[2] = system: SH-SY5Y cells; assay: Aβ-induced toxicity in SH-SY5Y cells, lactate dehydrogenase (LDH) release assay; format: cell-based, human; conditions: 1 μM, pretreated 24 hrs, then 25 μM Aβ 48 hrs
Protocol: as §1
Amyloid Preparation. The peptide Aβ1-42, referred to as “Aβ”, was obtained from a commercial source. The oligomers of Aβ were prepared using an established method,^43 Aβ peptide was resuspended in 0.5 mM NaOH at a concentration of […] and stored at −80° C. For use in cell cultures, the stock solution was incubated at 37° C. for 5-7 days. Before use, the peptide was diluted to 25 μM in DMEM/low glucose media.
Cell Viability Assays. […] Cell viability was measured after 48 hours using commercial MTS assay or lactate dehydrogenase (LDH) cytotoxicity assay. […]

[3] = system: 5XFAD primary cortical neurons; assay: Mitochondrial morphology (TOM20 staining) in 5XFAD primary cortical neurons; format: cell-based, mouse; conditions: 10 and 50 μM, 48 hours; compared with no treatment control 5XFAD neurons
Protocol: Immunofluorescent Microscopy and Image Analysis. Isolated primary mouse cortical neurons from the 5XFAD Alzheimer's Disease mouse model were cultured for 10 days and then treated with 14b at 10 or 50 μM for 48 hours. Primary neurons growing on the coverslips were washed three times with PBS and fixed with 4% PFA. After permeabilization with 0.5% Triton™ X-100 for 15 minutes, coverslips were blocked with 10% NGS for 30 min. Coverslips were rinsed with 1% NGS in PBS and incubated with anti-TOM20 antibody at 4° C. overnight. Coverslips were then rinsed with 1% NGS, blocked in 10% NGS for 10 min, and rinsed with 1% NGS. Coverslips were incubated with species-specific AlexaFluor® 488-conjugated Abs diluted in 1% NGS for 2 h at room temperature in the dark. Coverslips were rinsed 3× with PBS. Excess liquid was removed, and slides were coverslipped using Fluoromount-G™ mounting medium. Slides were imaged using a confocal microscope with 63x/1.4NA Oil objective. The acquired images were processed for background subtraction in Zen software. Mitochondrial length was calculated from single plane images. Mitochondrial length was defined as the Feret maximum.
To obtain proof-of-concept protective effect of 14b in an ex vivo mouse model of AD we isolated primary mouse cortical neurons from the 5XFAD Alzheimer's model mouse (FIGS. 6A-6C). […]

[4] = system: 5XFAD primary cortical neurons; assay: Respiration measurements in 5XFAD cortical neurons; format: cell-based, mouse; conditions: 10 μM and 50 μM, 48 hours
Protocol: Respiration Measurements (5XFAD cortical neurons). Primary cortical neurons were plated on poly-D-lysine-coated Seahorse XF24 cell culture microplates at a density of 3×10^4 cells/well and cultured for 14 days. At DIV (day in vitro) 12, neurons were treated with indicated compound for 48 hours. On day of the experiment, cells were washed three times and pre-incubated for 1 h in Assay Media with 10 mM Glucose, 1 mM Pyruvate, and 2 mM L-Glutamine. Measurement of intact cellular respiration was performed using an analyzer and a commercial Mito Stress Test Kit. Respiration was measured under basal conditions, and in response to 1.5 μM oligomycin followed by the addition of the […] (FCCP, 1 μM) which induces maximal OCR (Oxygen Consumption Rate). Finally, respiration was stopped by adding the electron transport chain inhibitors rotenone and antimycin A (0.5 μM). Values were normalized to cellular protein levels.
To obtain proof-of-concept protective effect of 14b in an ex vivo mouse model of AD we isolated primary mouse cortical neurons from the 5XFAD Alzheimer's model mouse (FIGS. 6A-6C). 5XFAD neurons were cultured for 10 days and then treated with 14b at 10 or 50 μM for 48 hours and then stained with the mitochondrial outer membrane protein TOM20 to evaluate mitochondrial morphological changes (FIG. 6A). […]

SMILES: O=C(C(c1ccccc1)n1cnc2[nH]ncc2c1=S)N1CCC(O)CC1 (centres unmarked) [Compound 14b, 1-(4-hydroxypiperidin-1-yl)-2-phenyl-2-(4-thioxo-1,4-dihydro-5H-pyrazolo[3,4-d]pyrimidin-5-yl)ethan-1-one]
- toxicity to reduce cell viability [1]: no toxicity; also recorded: non-toxic
- LDH release compared with Aβ treatment alone [2]: significantly reducing LDH release; also recorded: significantly rescued
- mitochondrial aspect ratio [3]: significantly rescued
- mitochondrial length [3]: significantly rescued
- mitochondrial respiration (oxygen consumption rate) rescue [4]: trend to rescue
